The results in this text go back to US10759794B2, “2-phenyl-3-(piperazinomethyl)imidazo[1,2-A]pyridine derivatives as blockers of task-1 and task-2 channels, for the treatment of sleep-related breathing disorders” (BAYER PHARMA AKTIENGESELLSCHAFT, priority 2015, dated 2020).

What all share (assay type): cell-based
The target in assay [1] is T1, human TASK-1 (Homo sapiens (Human), UniProt O14649). Put plainly: Inhibition of recombinant TASK-1 in stably transfected CHO cells (voltage-sensitive dye, FLIPR). Here is the method: (§1) B-2. Inhibition of Recombinant TASK-1 and TASK-3 In Vitro
T1 sequence (O14649 whole entry): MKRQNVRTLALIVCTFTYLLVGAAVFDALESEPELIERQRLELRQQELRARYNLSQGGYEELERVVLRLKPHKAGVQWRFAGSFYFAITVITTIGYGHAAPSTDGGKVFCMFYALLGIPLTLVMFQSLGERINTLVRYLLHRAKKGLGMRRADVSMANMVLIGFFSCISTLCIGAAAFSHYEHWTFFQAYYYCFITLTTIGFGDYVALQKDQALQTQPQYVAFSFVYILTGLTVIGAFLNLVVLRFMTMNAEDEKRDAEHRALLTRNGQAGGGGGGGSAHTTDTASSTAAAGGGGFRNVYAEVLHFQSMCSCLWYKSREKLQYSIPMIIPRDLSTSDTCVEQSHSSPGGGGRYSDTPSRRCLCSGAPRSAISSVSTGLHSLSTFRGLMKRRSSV
(§2) The investigations on the inhibition of the recombinant TASK-1 and TASK-3 channels were carried out using stably transfected CHO cells. Here, the compounds according to the invention were tested with administration of 40 mM of potassium chloride in the presence of a voltage-sensitive dye using the method described in detail in the following references [Whiteaker et al., Validation of FLIPR membrane potential dye for high-throughput screening of potassium channel modulators, J. Biomol. Screen. 6 (5), 305-312 (2001); Molecular Devices FLIPR Application Note: Measuring membrane potential using the FLIPR® membrane potential assay kit on Fluorometric Imaging Plate Reader (FLIPR®) systems, http://www.moleculardevices.com/reagents-supplies/assay-kits/ion-channels/flipr-membrane-potential-assay-kits]. The activity of the test substances was determined as their ability to inhibit a depolarization induced in the recombinant cells by 40 mM potassium chloride. The concentration which can block half of this depolarization is referred to as IC50.

Assay [2] deals with T2, human TASK-3 (Homo sapiens (Human), UniProt Q9NPC2). In words: Inhibition of recombinant TASK-3 in stably transfected CHO cells (voltage-sensitive dye, FLIPR). The method, then:
as §1, §2

Assay [3] deals with T1, human TASK-1. Put plainly: Two-electrode voltage clamp analysis of human TASK-1 channels in Xenopus laevis oocytes. To be noted: oocytes, voltage clamp, Table 1B; for IC50: comparative compounds. The method, then: (§3) B-1. In Vitro Electrophysiological Analysis of the Human TASK-1 and TASK-3 Channels Via Two-Electrode Voltage Clamp Technique in Xenopus laevis Oocytes
(§4) Xenopus laevis oocytes were selected as described elsewhere in an exemplary manner [Decher et al., FEBS Lett. 492, 84-89 (2001)]. Subsequently, the oocytes were injected with 0.5-5 ng of a cRNA solution coding for TASK-1 or TASK-3. For the electrophysiological analysis of the channel proteins expressed in the oocytes, the two-electrode voltage clamp technique [Stühmer, Methods Enzymol. 207, 319-339 (1992)] was used. The measurements were carried out as described [Decher et al., FEBS Lett. 492, 84-89 (2001)] at room temperature (21-22° C.) using a Turbo TEC 10CD amplifier (NPI), recorded at 2 kHz and filtered with 0.4 kHz. Substance administration was performed using a gravitation-driven perfusion system. Here, the oocyte is located in a measuring chamber and exposed to the solvent stream of 10 ml/min. The level in the measuring chamber is monitored and regulated by sucking off the solution using a peristaltic pump.

Assay [4] addresses T2, human TASK-3. In words: Two-electrode voltage clamp analysis of human TASK-3 channels in Xenopus laevis oocytes. To be noted: oocytes, voltage clamp, Table 1B; for IC50: comparative compounds. The method, then:
as §3, §4
A general note: Two-electrode voltage clamp holds a large cell at a set potential and records current.

[5] abbreviates: depolarization induced by 40 mM potassium chloride, Table 2A.
The mark [6] stands for this setting: 40 mM potassium chloride, comparative compounds, Table 2B.

Molecules are shown by their SMILES.

T2 sequence (Q9NPC2 whole entry): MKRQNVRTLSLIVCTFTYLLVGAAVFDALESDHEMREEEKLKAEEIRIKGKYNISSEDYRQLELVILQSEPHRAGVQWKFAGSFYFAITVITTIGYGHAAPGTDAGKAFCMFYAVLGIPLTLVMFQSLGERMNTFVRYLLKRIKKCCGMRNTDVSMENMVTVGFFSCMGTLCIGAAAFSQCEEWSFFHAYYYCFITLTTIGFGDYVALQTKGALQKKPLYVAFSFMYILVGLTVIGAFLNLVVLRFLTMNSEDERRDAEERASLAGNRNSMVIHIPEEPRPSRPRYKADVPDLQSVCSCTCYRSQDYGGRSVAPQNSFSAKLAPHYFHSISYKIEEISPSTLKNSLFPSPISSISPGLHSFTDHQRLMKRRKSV

As for `CCOc1cccc(C(=O)N2CCN(Cc3c(-c4ccc(Cl)cc4)nc4ccccn34)CC2)n1` [Example 45], the results for the IC50 on human TASK-1 [1] (setting [5]) and on human TASK-3 [2] (setting [5]) were 2000 nM and 63 nM, respectively.
Taken in the same sequence, the figures for `O=C(c1cccc(OC2CCOCC2)n1)N1CCN(Cc2c(-c3ccc(Cl)cc3)nc3ccccn23)CC1` [Example 46] were 1200 nM and 240 nM.
`O=C(C1CCCC1)N1CCN(Cc2c(-c3ccc(F)cc3)nc3ccccn23)CC1` [Example 48]: the IC50 came out at 551 nM at human TASK-1 [1] (setting [5]) and 830 nM on human TASK-3 [2] (setting [5]).
Taken in the same sequence, the figures for `O=C(C1CCC1)N1CCN(Cc2c(-c3ccc(F)cc3)nc3ccccn23)CC1` [Example 49] were 1830 nM and 1700 nM.
Taken in the same sequence, the figures for `COc1ccc(F)cc1C(=O)N1CCN(Cc2c(-c3ccc(F)cc3)nc3ccccn23)CC1` [Example 50] were 1620 nM and 1400 nM.
For `O=C(c1cc(F)ccc1Cl)N1CCN(Cc2c(-c3ccc(F)cc3)nc3ccccn23)CC1` [Example 51], in that order: 1890 nM and 1000 nM.
As for `COc1ccccc1C(=O)N1CCN(Cc2c(-c3ccc(F)cc3)nc3ccccn23)CC1` [Example 52], the IC50 on human TASK-1 [1] (setting [5]) was found to be 1160 nM; on human TASK-3 [2] (setting [5]), 560 nM.
For `CC(C)c1ccc(-c2nc3ccccn3c2CN2CCN(C(=O)c3ccccc3F)CC2)cc1` [Example 53], in that order: 2840 nM and 1000 nM.
Taken in the same sequence, the figures for `Cc1ccc(-c2nc3ccccn3c2CN2CCN(C(=O)C3CCCC3)CC2)cc1` [Example 56] were 642 nM and 700 nM.
For `Cc1ccc(-c2nc3ccccn3c2CN2CCN(C(=O)C3CCCCC3)CC2)cc1` [Example 57], in that order: 962 nM and 2900 nM.
As for `COc1ccccc1C(=O)N1CCN(Cc2c(-c3ccc(C)cc3)nc3ccccn23)CC1` [Example 58], the IC50 was 1910 nM on human TASK-1 [1] (setting [5]) and 1900 nM on human TASK-3 [2] (setting [5]).
Taken in the same sequence, the figures for `COc1cccc(C(=O)N2CCN(Cc3c(-c4ccc(C)cc4)nc4ccccn34)CC2)n1` [Example 59] were 800 nM and 430 nM.
In the case of `N#Cc1ccc(-c2nc3ccccn3c2CN2CCN(C(=O)c3ccccc3F)CC2)cc1` [Example 60], the IC50 was 1700 nM at human TASK-1 [1] (setting [5]) and 4600 nM on human TASK-3 [2] (setting [5]).
For `COc1cccc(C(=O)N2CCN(Cc3c(-c4ccc(C#N)cc4)nc4ccccn34)CC2)n1` [Example 61], in that order: 2050 nM and 1400 nM.
As for `N#Cc1ccc(-c2nc3ccccn3c2CN2CCN(C(=O)C3CCCC3)CC2)cc1` [Example 62], the IC50 was determined as 1200 nM on human TASK-1 [1] (setting [5]) and 3100 nM at human TASK-3 [2] (setting [5]).
`N#Cc1ccc(-c2nc3ccccn3c2CN2CCN(C(=O)C3CCCCC3)CC2)cc1` [Example 63]: the IC50 at human TASK-1 [1] (setting [5]) amounted to 1300 nM; on human TASK-3 [2] (setting [5]), 1600 nM.
For `COc1cccc(C(=O)N2CCN(Cc3c(-c4ccc(C(C)(C)C)cc4)nc4ccccn34)CC2)n1` [Example 64], in that order: 510 nM and 450 nM.
On to `CC(C)(C)c1ccc(-c2nc3ccccn3c2CN2CCN(C(=O)c3ccccc3F)CC2)cc1` [Example 65], for which the IC50 at human TASK-1 [1] (setting [5]) was determined as 1100 nM; at human TASK-3 [2] (setting [5]) it was 750 nM.
Taken in the same sequence, the figures for `CC(C)(C)c1ccc(-c2nc3ccccn3c2CN2CCN(C(=O)C3CCCC3)CC2)cc1` [Example 66] were 1500 nM and 830 nM.
Taken in the same sequence, the figures for `O=C(c1cccc(OC(F)(F)F)n1)N1CCN(Cc2c(-c3ccc(Cl)cc3)nc3ccccn23)CC1` [Example 67, (4-{[2-(4-Chlorophenyl)imidazo [1,2-a]pyridin-3-yl]methyl}piperazin-1-yl) [6-(trifluoromethoxy)pyridin-2-yl]methanone] were 42 nM and 9.4 nM.
As to `COc1ccc(F)c(C(=O)N2CCN(Cc3c(-c4ccc(Cl)cc4)nc4ccccn34)CC2)n1` [Example 68, (4-{[2-(4-Chlorophenyl)imidazo[1,2-a]pyridin-3-yl]methyl}piperazin-1-yl)(3-fluoro-6-methoxypyridin-2-yl)methanone], the figures for the IC50 on human TASK-1 [1] (setting [5]) and on human TASK-3 [2] (setting [5]) were 93 nM and 5.2 nM, respectively.
On to `O=C(c1ccccc1F)N1CCN(Cc2c(-c3ccc(C4CC4)cc3)nc3ccccn23)CC1` [Example 69, (4-{[2-(4-Cyclopropylphenyl)imidazo[1,2-a]pyridin-3-yl]methyl}piperazin-1-yl)(2-fluorophenyl)methanone], for which the 50% inhibitory concentration (IC50) stood at 66 nM at human TASK-1 [1] (setting [5]) and 11 nM on human TASK-3 [2] (setting [5]).
In the case of `COc1ccc(F)c(C(=O)N2CCN(Cc3c(-c4ccc(C#N)cc4)nc4ccccn34)CC2)c1` [Example 70], the IC50 is 1800 nM at human TASK-1 [1] (setting [5]) and 350 nM at human TASK-3 [2] (setting [5]).
Take `COc1ccc(C)c(C(=O)N2CCN(Cc3c(-c4ccc(C#N)cc4)nc4ccccn34)CC2)n1` [Example 71]: the IC50 on human TASK-1 [1] (setting [5]) worked out at 230 nM; at human TASK-3 [2] (setting [5]), 16 nM.
Taken in the same sequence, the figures for `COc1ccc(C)c(C(=O)N2CCN(Cc3c(-c4ccc(Cl)cc4)nc4ccccn34)CC2)n1` [Example 72] were 71 nM and 3 nM.
Consider `COc1ccc(C)c(C(=O)N2CCN(Cc3c(-c4ccc(C(C)(C)C)cc4)nc4ccccn34)CC2)n1` [Example 73], for which the results for the IC50 at human TASK-1 [1] (setting [5]) and at human TASK-3 [2] (setting [5]) were 170 nM and 17 nM, respectively.
On to `COc1ccc(C)c(C(=O)N2CCN(Cc3c(-c4ccc(Br)cc4)nc4ccccn34)CC2)n1` [Example 74], for which the IC50 stood at 67 nM on human TASK-1 [1] (setting [5]) and 9.1 nM on human TASK-3 [2] (setting [5]).
As for `O=C(c1ccccc1Cl)N1CCN(Cc2c(-c3ccc(Cl)cc3)nc3ccc(-c4ccccc4)cn23)CC1` [WO 2014/187922 Example 64, reference compound], the figures for the IC50 on human TASK-1 [1] (setting [6]) and at human TASK-3 [2] (setting [6]) were 30000 nM and 2200 nM, respectively.
Taken in the same sequence, the figures for `O=C(c1cccc(F)c1)N1CCN(Cc2c(-c3ccc(Cl)cc3)nc3ccc(C4CC4)cn23)CC1` [WO 2014/187922 Example 178, reference compound] were 30000 nM and 4800 nM.
`O=C(c1ccncc1)N1CCN(Cc2c(-c3ccc(Cl)cc3)nc3ccc(C4CC4)cn23)CC1` [WO 2014/187922 Example 196, reference compound]: the IC50 on human TASK-1 [1] (setting [6]) and on human TASK-3 [2] (setting [6]) was 30000 nM throughout.
Consider `COc1cccc(-c2nc3ccccn3c2CN2CCN(C(=O)C3CCC3)CC2)c1` [WO 2014/187922 Example 208, reference compound], for which the IC50 on human TASK-1 [1] (setting [6]) and at human TASK-3 [2] (setting [6]) was 30000 nM throughout.
With `O=C(c1cnccn1)N1CCN(Cc2c(-c3ccc(Cl)cc3)nc3ccc(C4CC4)cn23)CC1` [WO 2014/187922 Example 263, reference compound], the IC50 at human TASK-1 [1] (setting [6]) is 30000 nM; on human TASK-3 [2] (setting [6]) it was 5700 nM.
On human TASK-1 [3], `O=C(c1ccccc1Cl)N1CCN(Cc2c(-c3ccc(Cl)cc3)nc3ccc(-c4ccccc4)cn23)CC1` [drawing 122] displayed an inhibition at 1 µM of 6.3 ± 1.4%, an inhibition at 10 µM of 16.9 ± 3.2% and an IC50 greater than 30000 nM. At human TASK-3 [4], this molecule had an inhibition at 1 µM of 9.3 ± 3.4%, an inhibition at 10 µM of 19.4 ± 4.6% and an IC50 greater than 30000 nM.
On human TASK-1 [3], `O=C(c1cccc(F)c1)N1CCN(Cc2c(-c3ccc(Cl)cc3)nc3ccc(C4CC4)cn23)CC1` [drawing 123] displayed an inhibition at 1 µM of 30 ± 3.3%, an inhibition at 10 µM of 59.9 ± 1.7% and an IC50 greater than 1000 nM. In addition, on human TASK-3 [4], the inhibition at 1 µM came to 29.7 ± 2.6%, the inhibition at 10 µM amounted to 56.1 ± 4.6% and the IC50 was greater than 1000 nM.
`O=C(c1ccncc1)N1CCN(Cc2c(-c3ccc(Cl)cc3)nc3ccc(C4CC4)cn23)CC1` [drawing 124]: on human TASK-1 [3], the inhibition at 1 µM is 47.2 ± 1.5%, the inhibition at 10 µM was 49.9 ± 3.3% and the IC50 was greater than 1000 nM. On human TASK-3 [4], this molecule came in with an inhibition at 1 µM of 12.1 ± 1.8%, an inhibition at 10 µM of 56.1 ± 2.3% and an IC50 greater than 1000 nM.
At human TASK-1 [3], `COc1cccc(-c2nc3ccccn3c2CN2CCN(C(=O)C3CCC3)CC2)c1` [drawing 125] came in with an inhibition at 1 µM of 49.6 ± 6.7%, an inhibition at 10 µM of 75 ± 3.5% and an IC50 greater than 1000 nM. At human TASK-3 [4], this molecule yielded an inhibition at 1 µM of 34.6 ± 2.7%, an inhibition at 10 µM of 73.6 ± 3.7% and an IC50 greater than 1000 nM.
On human TASK-1 [3], `O=C(c1cnccn1)N1CCN(Cc2c(-c3ccc(Cl)cc3)nc3ccc(C4CC4)cn23)CC1` [drawing 126] registered an inhibition at 1 µM of 27.7 ± 4.5%, an inhibition at 10 µM of 55.2 ± 1.7% and an IC50 greater than 1000 nM. On human TASK-3 [4], the inhibition at 1 µM was 8.1 ± 2.6%, the inhibition at 10 µM came to 48.2 ± 4.3% and the IC50 was greater than 10000 nM.

What is called IC50 is the midpoint of a concentration-inhibition curve. By inhibition is commonly meant the percentage by which the read-out fell short of the control. Low readings indicate little suppression, high ones strong suppression.
